Measurements from ChEMBL document CHEMBL1150678, “Bioactive sterols from the starfish Certonardoa semiregularis” (2003).
Values after ≈ are worked out from the molar mass of the structure shown.

What was measured:
Escherichia coli [1] = assay: Antimicrobial activity against Escherichia coli TEM isolate after 18 hrs; type: functional
Escherichia coli [2] = assay: Antimicrobial activity against Escherichia coli 1507E isolate after 18 hrs; type: functional
Pseudomonas aeruginosa [3] = assay: Antimicrobial activity against Pseudomonas aeruginosa 9027 isolate after 18 hrs; type: functional
Salmonella typhimurium = assay: Antimicrobial activity against Salmonella Typhimurium after 18 hrs; type: functional, Salmonella enterica subsp. enterica serovar Typhimurium; conditions: Salmonella enterica
Klebsiella oxytoca = assay: Antimicrobial activity against Klebsiella oxytoca 1082E after 18 hrs; type: functional
Klebsiella aerogenes = assay: Antimicrobial activity against Klebsiella aerogenes 1522E after 18 hrs; type: functional
Enterobacter cloacae [4] = assay: Antimicrobial activity against Enterobacter cloacae P99 after 18 hrs; type: functional
Enterobacter cloacae [5] = assay: Antimicrobial activity against Enterobacter cloacae 1321E after 18 hrs; type: functional
Staphylococcus aureus [6] = assay: Antimicrobial activity against Staphylococcus aureus 285 isolate after 18 hrs; type: functional
Escherichia coli [7] = assay: Antimicrobial activity against Escherichia coli DC0 isolate after 18 hrs; type: functional
Escherichia coli [8] = assay: Antimicrobial activity against Escherichia coli 078 isolate after 18 hrs; type: functional
Staphylococcus aureus [9] = assay: Antimicrobial activity against Staphylococcus aureus 503 isolate after 18 hrs; type: functional
Streptococcus pyogenes [10] = assay: Antimicrobial activity against Streptococcus pyogenes 77A isolate after 18 hrs; type: functional
Pseudomonas aeruginosa [11] = assay: Antimicrobial activity against Pseudomonas aeruginosa 1592E isolate after 18 hrs; type: functional
Pseudomonas aeruginosa [12] = assay: Antimicrobial activity against Pseudomonas aeruginosa 1771 isolate after 18 hrs; type: functional
Pseudomonas aeruginosa [13] = assay: Antimicrobial activity against Pseudomonas aeruginosa 1771M isolate after 18 hrs; type: functional
Enterococcus faecium = assay: Antimicrobial activity against Streptococcus faecium MD8b isolate after 18 hrs; type: functional
Staphylococcus aureus [14] = assay: Antimicrobial activity against Staphylococcus aureus SG511 isolate after 18 hrs; type: functional
A549 = assay: Cytotoxicity against human A549 cells; type: functional; conditions: read-out: ED50 (the source's name)
SK-OV-3 = assay: Cytotoxicity against human SKOV3 cells; type: functional; conditions: read-out: ED50 (the source's name)
SK-MEL-2 = assay: Cytotoxicity against human SK-MEL-2 cells; type: functional; conditions: read-out: ED50 (the source's name)
XF498 = assay: Cytotoxicity against human XF498 cells; type: functional; conditions: read-out: ED50 (the source's name)
HCT-15 = assay: Cytotoxicity against human HCT15 cells; type: functional; conditions: read-out: ED50 (the source's name)
Streptococcus pyogenes [15] = assay: Antimicrobial activity against Streptococcus pyogenes 308A isolate after 18 hrs; type: functional
Escherichia coli [16] = assay: Antimicrobial activity against Escherichia coli DC2 isolate after 18 hrs; type: functional

SMILES | MIC (Escherichia coli [1]) | MIC (Escherichia coli [2]) | MIC (Pseudomonas aeruginosa [3]) | MIC (Salmonella typhimurium) | MIC (Klebsiella oxytoca) | MIC (Klebsiella aerogenes) | MIC (Enterobacter cloacae [4]) | MIC (Enterobacter cloacae [5]) | MIC (Staphylococcus aureus [6]) | MIC (Escherichia coli [7]) | MIC (Streptococcus pyogenes [10]) | MIC (Pseudomonas aeruginosa [11]) | MIC (Pseudomonas aeruginosa [12]) | MIC (Pseudomonas aeruginosa [13]) | EC50 (A549) | EC50 (SK-OV-3) | EC50 (SK-MEL-2) | EC50 (XF498) | EC50 (HCT-15) | MIC (Streptococcus pyogenes [15]) | other results
CC(C)[C@@H](O)CC[C@@H](C)[C@H]1C[C@@H](O)[C@@H]2[C@]1(C)CC[C@@H]1[C@@]3(C)CC[C@H](O)C[C@@H]3[C@@H](O)C[C@]12O | > 25 µg/mL | > 25 µg/mL | > 25 µg/mL | > 25 µg/mL | > 25 µg/mL | > 25 µg/mL | > 25 µg/mL | > 25 µg/mL | > 25 µg/mL | > 25 µg/mL | > 25 µg/mL | > 25 µg/mL | 25 µg/mL (≈ 55.2 µM) | 25 µg/mL (≈ 55.2 µM) | 11.3 µg/mL (≈ 25 µM) | 15.6 µg/mL (≈ 34.5 µM) | 12.4 µg/mL (≈ 27.4 µM) | 11.4 µg/mL (≈ 25.2 µM) | 19.4 µg/mL (≈ 42.9 µM) | 12.5 µg/mL (≈ 27.6 µM) | MIC (Escherichia coli [8]): > 25 µg/mL; MIC (Staphylococcus aureus [9]): > 25 µg/mL; MIC (Enterococcus faecium): > 25 µg/mL; MIC (Staphylococcus aureus [14]): > 25 µg/mL; MIC (Escherichia coli [16]): > 25 µg/mL
C=C(CC[C@@H](C)[C@H]1C[C@@H](O)[C@@H]2[C@]1(C)CC[C@@H]1[C@@]3(C)CC[C@H](O)[C@H](O)[C@@H]3[C@@H](O)C[C@]12O)[C@H](C)CO [CERTONARDOSTEROL A] | > 25 µg/mL | > 25 µg/mL | > 25 µg/mL | > 25 µg/mL | > 25 µg/mL | > 25 µg/mL | > 25 µg/mL | > 25 µg/mL | > 25 µg/mL | > 25 µg/mL | > 25 µg/mL | > 25 µg/mL | 25 µg/mL (≈ 52 µM) | 25 µg/mL (≈ 52 µM) | 3.1 µg/mL (≈ 6.45 µM) | 7.3 µg/mL (≈ 15.2 µM) | 4.1 µg/mL (≈ 8.53 µM) | 4.4 µg/mL (≈ 9.15 µM) | 4.5 µg/mL (≈ 9.36 µM) | 25 µg/mL (≈ 52 µM) | MIC (Escherichia coli [8]): > 25 µg/mL; MIC (Staphylococcus aureus [9]): > 25 µg/mL; MIC (Enterococcus faecium): > 25 µg/mL; MIC (Staphylococcus aureus [14]): > 25 µg/mL; MIC (Escherichia coli [16]): > 25 µg/mL
C=C(CC[C@@H](C)[C@H]1C[C@@H](O)[C@H]2[C@@H]3C[C@H](O)[C@H]4[C@@H](O)[C@@H](O)CC[C@]4(C)[C@H]3CC[C@@]21C)[C@H](C)CO [CERTONARDOSTEROL B] | > 25 µg/mL | > 25 µg/mL | > 25 µg/mL | > 25 µg/mL | > 25 µg/mL | > 25 µg/mL | > 25 µg/mL | > 25 µg/mL | > 25 µg/mL | > 25 µg/mL | > 25 µg/mL | > 25 µg/mL | 25 µg/mL (≈ 53.8 µM) | 25 µg/mL (≈ 53.8 µM) | 3.6 µg/mL (≈ 7.75 µM) | 6.9 µg/mL (≈ 14.8 µM) | 4.9 µg/mL (≈ 10.5 µM) | 4.7 µg/mL (≈ 10.1 µM) | 6.4 µg/mL (≈ 13.8 µM) | 25 µg/mL (≈ 53.8 µM) | MIC (Escherichia coli [8]): > 25 µg/mL; MIC (Staphylococcus aureus [9]): > 25 µg/mL; MIC (Enterococcus faecium): > 25 µg/mL; MIC (Staphylococcus aureus [14]): > 25 µg/mL; MIC (Escherichia coli [16]): > 25 µg/mL
C=C(CC[C@@H](C)[C@H]1C[C@@H](O)[C@@H]2[C@]1(C)CC[C@@H]1[C@@]3(C)CC[C@H](O)C[C@@H]3[C@@H](O)C[C@]12O)[C@H](C)CO [CERTONARDOSTEROL C] | > 25 µg/mL | > 25 µg/mL | > 25 µg/mL | > 25 µg/mL | > 25 µg/mL | > 25 µg/mL | > 25 µg/mL | > 25 µg/mL | > 25 µg/mL | > 25 µg/mL | > 25 µg/mL | > 25 µg/mL | 25 µg/mL (≈ 53.8 µM) | 25 µg/mL (≈ 53.8 µM) | 14.1 µg/mL (≈ 30.3 µM) | 20.2 µg/mL (≈ 43.5 µM) | 15.1 µg/mL (≈ 32.5 µM) | 13.3 µg/mL (≈ 28.6 µM) | 23.9 µg/mL (≈ 51.4 µM) | 25 µg/mL (≈ 53.8 µM) | MIC (Escherichia coli [8]): > 25 µg/mL; MIC (Staphylococcus aureus [9]): > 25 µg/mL; MIC (Enterococcus faecium): > 25 µg/mL; MIC (Staphylococcus aureus [14]): > 25 µg/mL; MIC (Escherichia coli [16]): > 25 µg/mL
C=C(CC[C@@H](C)[C@H]1C[C@@H](O)[C@H]2[C@@H]3C[C@H](O)[C@H]4C[C@@H](O)CC[C@]4(C)[C@H]3CC[C@@]21C)[C@H](C)CO [CERTONARDOSTEROL D] | > 25 µg/mL | > 25 µg/mL | > 25 µg/mL | > 25 µg/mL | > 25 µg/mL | > 25 µg/mL | > 25 µg/mL | > 25 µg/mL | > 25 µg/mL | > 25 µg/mL | > 25 µg/mL | > 25 µg/mL | 25 µg/mL (≈ 55.7 µM) | 25 µg/mL (≈ 55.7 µM) | 5.3 µg/mL (≈ 11.8 µM) | 8.5 µg/mL (≈ 18.9 µM) | 5.5 µg/mL (≈ 12.3 µM) | 4.8 µg/mL (≈ 10.7 µM) | 9.6 µg/mL (≈ 21.4 µM) | 25 µg/mL (≈ 55.7 µM) | MIC (Escherichia coli [8]): > 25 µg/mL; MIC (Staphylococcus aureus [9]): > 25 µg/mL; MIC (Enterococcus faecium): > 25 µg/mL; MIC (Staphylococcus aureus [14]): > 25 µg/mL; MIC (Escherichia coli [16]): > 25 µg/mL
CC(/C=C/[C@@H](C)[C@H]1C[C@@H](O)[C@H]2[C@@H]3C[C@H](O)[C@H]4C(O)[C@@H](O)CC[C@]4(C)[C@H]3CC[C@@]21C)CCO (stereo not given in full) [CERTONARDOSTEROL L] |  |  |  |  |  |  |  |  |  |  |  |  |  |  | 4.3 µg/mL (≈ 9.54 µM) | 6 µg/mL (≈ 13.3 µM) | 4.3 µg/mL (≈ 9.54 µM) | 4.5 µg/mL (≈ 9.99 µM) | 4.2 µg/mL (≈ 9.32 µM) |  | 
C[C@H](CO)[C@H](C)CC[C@@H](C)[C@H]1C[C@@H](O)[C@@H]2[C@]1(C)CC[C@@H]1[C@@]3(C)CC[C@H](O)[C@H](O)[C@@H]3[C@@H](O)C[C@]12O [CERTONARDOSTEROL M] |  |  |  |  |  |  |  |  |  |  |  |  |  |  | 30 µg/mL (≈ 62.2 µM) | > 30 µg/mL | > 30 µg/mL | > 30 µg/mL | > 30 µg/mL |  | 
COc1cccc2c1C(=O)c1c(O)c3c(c(O)c1C2=O)C[C@@](O)(C(=O)CO)C[C@@H]3O[C@H]1C[C@H](N)[C@H](O)[C@H](C)O1 [DOXORUBICIN] |  |  |  |  |  |  |  |  |  |  |  |  |  |  | 0.02 µg/mL (≈ 0.0368 µM) | 0.17 µg/mL (≈ 0.313 µM) | 0.02 µg/mL (≈ 0.0368 µM) | 0.06 µg/mL (≈ 0.11 µM) | 0.03 µg/mL (≈ 0.0552 µM) |  | 
C[C@@H](O)[C@H]1C(=O)N2C(C(=O)O)=C(S[C@@H]3CN[C@H](C(=O)N(C)C)C3)[C@H](C)[C@H]12 [MEROPENEM] |  |  |  |  |  |  |  |  |  |  | 0.004 µg/mL (≈ 0.0104 µM) | 0.2 µg/mL (≈ 0.522 µM) | 0.39 µg/mL (≈ 1.02 µM) | 0.1 µg/mL (≈ 0.261 µM) |  |  |  |  |  | 0.01 µg/mL (≈ 0.0261 µM) | 
